The text below walks through data of publication PMC5120204, “Identification of an orally active small-molecule PTHR1 agonist for the treatment of hypoparathyroidism” (Nature Communications, 2016).

The test system of one series is OVX rats. Put plainly: Repeated administration study in OVX rats. The class given is in vivo, rat. Here is the method:
OVX was carried out in 32-week-old female Crl:CD (SD) rats (Charles River Laboratories). Twelve weeks after surgery, lumbar vertebral BMD (L3–L5) was measured in vivo by dual-energy X-ray absorptiometry (DXA) using a DCS-600EX-IIIR bone densitometer (Hitachi Aloka Medical), and the rats were divided into five groups, each with a similar mean value of BMD and body weight. Sample sizes were determined based on previous experiments with hPTHs and a published study with ibandronate and eldecalcitriol in our laboratories[42] (n=7–10). Then, OVX rats were treated once daily intravenously (vehicle or PCO371 at 3 or 10 mg kg^−1) or orally (vehicle or PCO371 at 30 mg kg^−1) or subcutaneously [vehicle or hPTH(1–34) at 0.9 nmol kg^−1] for 12 weeks. Ten to twelve OVX rats were assigned to each dose group. Nine rats were assigned to the sham-operated control group and were treated with vehicle for PCO371. Ten per cent DMSO (Wako Pure Chemical Industries)/10% Kolliphor EL (Sigma-Aldrich) in 10% hydroxypropyl-β-cyclodextrin (HPCD; Nihon Shokuhin Kako)/0.752% glycine (Wako Pure Chemical Industries) buffer was used as vehicle for PCO371, and phosphate-citrate buffer (pH 6.0) was used as vehicle for hPTH(1–34). To label bone-forming surfaces, tetracycline ([…], Nippon Zenyaku Kogyo) was subcutaneously injected on Day 78 and calcein (8 mg kg^−1, Dōjindo Laboratories) was subcutaneously injected on day 83. Under isoflurane anaesthesia, jugular vein blood was collected immediately before and at 1, 2, 6, 10 and 24 h after administration on day 82 to measure plasma concentration of PCO371 or on day 84 to measure serum Ca levels (o-CPC method, Wako Pure Chemical Industries). Urine was collected for 24 h from metabolic cages on days 84–85 to measure urinary collagen type 1 cross-linked C-telopeptide (CTX) by using the RatLaps ELISA System (Immunodiagnostic Systems). Under isoflurane anaesthesia, blood was collected on day 85 from the abdominal aorta to measure serum osteocalcin level by using the Rat Osteocalcin ELISA System (GE Healthcare). The lumbar spine and bilateral femurs were excised after 12 weeks of treatment. The first lumbar vertebra (L1), 3rd to 5th lumbar vertebrae (L3–L5), the right femur, and the right tibia were preserved in 70% ethanol to measure bone histomorphometry and BMD (DCS-600EX; Hitachi Aloka Medical). Measurement of bone histomorphometry was performed by the Ito Bone Histomorphometry Institute (Niigata, Japan). The second lumbar vertebra (L2) was wrapped in saline-soaked gauze and stored at −80 °C until measurement. Ultimate compressive strength (N) of the L2 vertebra was measured by using a mechanical testing machine (TK-252C; Muromachi Kikai).

A further series concerns the target T1, PTHR1 (Rattus norvegicus, UniProt P25961).
T1 construct: UMR-106 cells, which natively express rat PTHR1; endogenous in cells; host or cells: UMR-106 (ATCC)
T1 sequence (P25961 27-591): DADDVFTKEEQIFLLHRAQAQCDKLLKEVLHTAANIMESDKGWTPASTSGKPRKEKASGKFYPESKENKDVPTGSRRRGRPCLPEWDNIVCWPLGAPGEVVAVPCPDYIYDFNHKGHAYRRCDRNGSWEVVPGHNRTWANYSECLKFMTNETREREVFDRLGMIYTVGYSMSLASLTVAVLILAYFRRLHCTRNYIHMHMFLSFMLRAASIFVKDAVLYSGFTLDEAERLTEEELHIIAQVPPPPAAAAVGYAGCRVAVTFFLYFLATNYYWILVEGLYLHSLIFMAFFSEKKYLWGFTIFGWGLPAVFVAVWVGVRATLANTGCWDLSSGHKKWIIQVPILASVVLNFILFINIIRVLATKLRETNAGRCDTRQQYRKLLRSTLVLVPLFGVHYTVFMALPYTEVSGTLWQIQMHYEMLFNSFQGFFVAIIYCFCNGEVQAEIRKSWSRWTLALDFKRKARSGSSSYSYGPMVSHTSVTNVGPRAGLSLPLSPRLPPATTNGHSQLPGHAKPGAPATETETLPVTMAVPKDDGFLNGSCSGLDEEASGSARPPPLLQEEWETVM
Put plainly: cAMP washout assay in UMR-106 cells. The class given is cell-based. To be noted: washout 0–120 min. Here is the method:
The duration of cAMP signalling capacity of PCO371, hPTH(1–34) and LA-PTH (synthesized at American Peptide Company, Inc.) was assessed in a time-course experiment in UMR-106 cells (cAMP washout assay). The cells were treated with assay medium (2 mg m l^−1 BSA, and 2 mmol l^−1 HEPES/McCoy's 5A medium, Life Technologies) alone (basal) or with ligands (1 μmol l^−1 for hPTH(1–34), 0.1 μmol l^−1 for LA-PTH and 0.1 mmol l^−1 for PCO371) in the assay medium for 10 min, washed (t=0), incubated for 0, 30, 60 and 120 min (washout phase), and then further incubated for 5 min in the assay medium containing IBMX (2 mmol l^−1). Incubations were terminated with 50 mmol l^−1 HCl. The cAMP concentrations were determined using a cAMP EIA kit (GE Healthcare).

The test system of the next series is normal dogs. The series is described as follows: Preclinical toxicology studies. The class given is in vivo, dog.
A further series has as its target T2, rat PTHR2 (Rattus norvegicus, UniProt P70555).
T2 construct: expressed in transfected cells; host or cells: COS-7 (transient)
Put plainly: cAMP production assay in COS-7 cells expressing rat PTHR2. The class given is cell-based. The protocol: COS-7 cells (ATCC) were seeded into a 96-well flat-bottomed plate (1.4 × 10^4 cells per 100 μl per well) and incubated overnight. The next day, the COS-7 cells were transfected by adding 10 μl of a mixture of hPTHR1, hPTHR2 or mutant hPTHR1 plasmid, rat PTHR1 or rat PTHR2 plasmid, or empty vector (0.1 μg per well), FuGENE HD Transfection Reagent (0.4 μl per well, Promega), and Opti-MEM I Reduced Serum Medium (10 μl per well, Life Technologies) to each well. […] The plate was placed in a 37 °C constant-temperature water bath for 20 min to allow the reaction to proceed. After incubation, the liquid in the wells was discarded, the wells were washed with the assay medium (100 μl per well), and the plate was frozen on dry ice. Next, 40 μl of 50 mmol l^−1 HCl was added to each well, and the plate was stored in a freezer set at ≤−20 °C. The cAMP concentrations were measured by using a cAMP EIA kit (GE Healthcare). EC50 values were determined from three independent experiments in duplicate by a non-linear regression Emax model (JMP ver.9.0.2, SAS Institute). The geometric mean of the EC50 values obtained in three experiments in duplicate was calculated using Microsoft Office Excel 2007. […]
For orientation: cAMP levels reflect the balance of adenylyl cyclase and phosphodiesterase activity.

The mark [1] stands for this setting: daily oral 30 mg kg^−1, 12 weeks.

SMILES strings stand for the structures.

T2 sequence (P70555 25-546): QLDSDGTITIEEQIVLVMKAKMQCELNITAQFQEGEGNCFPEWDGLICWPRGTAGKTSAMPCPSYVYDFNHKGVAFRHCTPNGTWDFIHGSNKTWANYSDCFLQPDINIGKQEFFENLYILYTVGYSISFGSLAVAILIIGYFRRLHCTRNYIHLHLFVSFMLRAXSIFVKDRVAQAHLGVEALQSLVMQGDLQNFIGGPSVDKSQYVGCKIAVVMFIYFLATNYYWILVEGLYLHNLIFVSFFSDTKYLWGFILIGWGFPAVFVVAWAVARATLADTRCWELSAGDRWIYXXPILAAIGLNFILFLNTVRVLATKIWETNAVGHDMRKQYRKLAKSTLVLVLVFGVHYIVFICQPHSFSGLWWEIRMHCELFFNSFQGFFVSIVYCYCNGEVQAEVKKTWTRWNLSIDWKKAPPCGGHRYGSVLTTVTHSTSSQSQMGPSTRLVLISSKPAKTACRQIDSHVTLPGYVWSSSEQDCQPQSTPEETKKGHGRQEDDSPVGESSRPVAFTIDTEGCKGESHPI

Regarding `Cc1cc(N2C(=O)NC(=O)C2(C)C)cc(C)c1CCS(=O)(=O)N1CCC2(CC1)N=C(c1ccc(OC(F)(F)F)cc1)NC2=O` [PCO371, 1-{3,5-dimethyl-4-[2-({4-oxo-2-[4-(trifluoromethoxy)phenyl]-1,3,8-triazaspiro[4.5]dec-1-en-8-yl}sulfonyl)ethyl]phenyl}-5,5-dimethylimidazolidine-2,4-dione], the “BMD or bone strength in the lumbar spine” value was “did not affect” with OVX rats (daily intravenous 3 mg kg^−1, 12 weeks) and “did not affect” in the series with OVX rats (setting [1]). Also, in the series on OVX rats (setting [1]), the “BMD in the proximal femur” value is recorded as “partially increased”. For the same molecule, the “BMD in total femur” value in the series with OVX rats (setting [1]) is on record as “not in total femur”. In addition, the “serum Ca” value in the series on OVX rats (day 84, all treated rats) is “within the normal range”. Moreover, the “serum osteocalcin and urinary CTX/creatinine” value in the series on OVX rats (intravenous 10 mg kg^−1, 12 weeks) was “significant increase”; in the series with OVX rats (oral 30 mg kg^−1, 12 weeks), “significant increase”. Moreover, the “BMD and bone strength in the lumbar vertebrae” value with OVX rats (once-daily intravenous 10 mg kg^−1, 12 weeks, vs vehicle) is given as “significant increase”. On PTHR1, the “duration of cAMP-signalling response” value is “much shorter than that of hPTH(1–34)”. In addition, the serious side effects entry is reported as “not any serious side effects” in the series with normal dogs (one-month toxicology studies in normal dogs) and “no serious side effects” in the series on normal dogs (preclinical toxicology studies). At rat PTHR2, the cAMP production result is on record as “did not stimulate cAMP production”.
